pKd, pKi: −log10 of the molar value. The source made the active and inactive calls. The calls are words filed in the database; no cut-off is given here.
Key:
[1] = target: T1, Chitinase B (Serratia marcescens) (UniProt P11797); assay: Inhibition of Serratia marcescens chitinase b catalytic domain overexpressed in Escherichia coli BL21(DE3) cells at 1 uM using 4MU-(GlcNAc)2 as substrate after 30 mins by fluorescence based microplate reader analysis
T1 sequence (whole entry): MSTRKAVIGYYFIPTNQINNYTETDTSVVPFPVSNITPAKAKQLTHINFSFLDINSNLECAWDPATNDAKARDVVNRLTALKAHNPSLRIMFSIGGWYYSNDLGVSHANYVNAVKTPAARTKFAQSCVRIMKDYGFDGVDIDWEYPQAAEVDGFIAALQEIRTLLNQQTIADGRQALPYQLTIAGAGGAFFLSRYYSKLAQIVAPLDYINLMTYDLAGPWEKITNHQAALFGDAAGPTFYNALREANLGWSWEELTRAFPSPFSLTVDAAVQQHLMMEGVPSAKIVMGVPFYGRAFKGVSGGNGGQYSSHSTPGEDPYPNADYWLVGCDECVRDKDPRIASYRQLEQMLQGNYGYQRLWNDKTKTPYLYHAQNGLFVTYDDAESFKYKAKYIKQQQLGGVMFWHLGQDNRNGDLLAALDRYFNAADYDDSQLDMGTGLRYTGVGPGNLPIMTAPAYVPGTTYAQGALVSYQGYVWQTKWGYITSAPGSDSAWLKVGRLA

Chitotriosidase-1 [2] = target: T2, Chitotriosidase-1 (Homo sapiens, UniProt Q13231); assay: Inhibition of human CHIT1 catalytic domain overexpressed in Pichia pastoris at 10 uM using 4MU-(GlcNAc)2 as substrate after 30 mins by fluorescence based microplate reader analysis
Target sequence in this assay (Q13231 22-466 limits assumed): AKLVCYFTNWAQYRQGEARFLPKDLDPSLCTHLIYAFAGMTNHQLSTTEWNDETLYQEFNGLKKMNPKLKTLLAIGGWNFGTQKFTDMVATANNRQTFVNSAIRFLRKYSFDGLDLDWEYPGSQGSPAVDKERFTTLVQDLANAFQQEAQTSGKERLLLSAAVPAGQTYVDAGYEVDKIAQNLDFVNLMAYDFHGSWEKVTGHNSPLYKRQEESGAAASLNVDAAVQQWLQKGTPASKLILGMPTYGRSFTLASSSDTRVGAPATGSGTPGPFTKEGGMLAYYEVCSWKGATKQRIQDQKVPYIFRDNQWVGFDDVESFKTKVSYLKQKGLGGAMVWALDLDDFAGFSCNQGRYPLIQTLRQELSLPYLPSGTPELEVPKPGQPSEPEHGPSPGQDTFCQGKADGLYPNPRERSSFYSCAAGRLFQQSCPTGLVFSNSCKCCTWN

[3] = target: T3, Acidic mammalian chitinase (Homo sapiens, UniProt Q9BZP6); assay: Inhibition of human acidic mammalian chitinase catalytic domain overexpressed in Pichia pastoris at 10 uM using 4MU-(GlcNAc)2 as substrate after 30 mins by fluorescence based microplate reader analysis
Target sequence in this assay (Q9BZP6 22-476 limits assumed): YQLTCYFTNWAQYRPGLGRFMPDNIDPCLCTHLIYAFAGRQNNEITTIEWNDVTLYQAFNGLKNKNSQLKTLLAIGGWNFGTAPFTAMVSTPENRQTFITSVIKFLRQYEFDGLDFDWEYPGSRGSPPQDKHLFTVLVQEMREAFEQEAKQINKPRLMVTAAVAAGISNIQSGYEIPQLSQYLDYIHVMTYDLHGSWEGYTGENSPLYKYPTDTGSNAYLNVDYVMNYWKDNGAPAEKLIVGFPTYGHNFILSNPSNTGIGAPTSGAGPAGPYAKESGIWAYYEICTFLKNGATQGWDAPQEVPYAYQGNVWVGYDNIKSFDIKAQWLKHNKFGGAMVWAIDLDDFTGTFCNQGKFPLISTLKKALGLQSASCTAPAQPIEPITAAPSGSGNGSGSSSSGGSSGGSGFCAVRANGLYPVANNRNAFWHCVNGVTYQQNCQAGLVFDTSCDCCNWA

[4] = target: Chitinase (Ostrinia furnacalis) (UniProt Q4AE59); assay: Inhibition of Ostrinia furnacalis chitinase h catalytic domain overexpressed in Pichia pastoris at 1 uM using 4MU-(GlcNAc)2 as substrate after 30 mins by fluorescence based microplate reader analysis
Sequence of Chitinase (Ostrinia furnacalis) (Q4AE59 as listed by the source): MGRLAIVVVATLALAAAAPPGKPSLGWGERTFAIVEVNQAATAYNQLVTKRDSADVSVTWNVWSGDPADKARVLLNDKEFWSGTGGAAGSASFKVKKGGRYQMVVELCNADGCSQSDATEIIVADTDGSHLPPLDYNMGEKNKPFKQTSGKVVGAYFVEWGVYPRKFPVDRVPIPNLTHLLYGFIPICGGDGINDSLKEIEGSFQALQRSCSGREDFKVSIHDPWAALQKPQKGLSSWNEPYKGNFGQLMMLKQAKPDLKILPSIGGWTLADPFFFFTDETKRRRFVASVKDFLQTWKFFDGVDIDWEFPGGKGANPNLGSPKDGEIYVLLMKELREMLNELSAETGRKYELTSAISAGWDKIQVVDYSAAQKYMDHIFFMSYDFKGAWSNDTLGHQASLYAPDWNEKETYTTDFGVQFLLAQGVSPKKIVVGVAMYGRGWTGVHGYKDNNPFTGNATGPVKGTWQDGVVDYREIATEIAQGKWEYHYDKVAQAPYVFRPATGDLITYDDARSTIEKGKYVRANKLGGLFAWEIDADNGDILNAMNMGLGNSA

Chitinase [5] = target: T4, Chitinase (Ostrinia furnacalis, UniProt Q4AE59); assay: Binding affinity to Ostrinia furnacalis chitinase h catalytic domain overexpressed in Pichia pastoris by isothermal titration calorimetry
T4 sequence (Q4AE59 whole entry, the tested form may be a part): as the sequence (Q4AE59 as listed by the source) above

Chitotriosidase-1 [6] = target: T2, Chitotriosidase-1; assay: Inhibition of human CHIT1 catalytic domain overexpressed in Pichia pastoris using 4MU-(GlcNAc)2 as substrate after 30 mins by fluorescence based microplate reader analysis
Target sequence in this assay (Q13231 whole entry, the tested form may be a part): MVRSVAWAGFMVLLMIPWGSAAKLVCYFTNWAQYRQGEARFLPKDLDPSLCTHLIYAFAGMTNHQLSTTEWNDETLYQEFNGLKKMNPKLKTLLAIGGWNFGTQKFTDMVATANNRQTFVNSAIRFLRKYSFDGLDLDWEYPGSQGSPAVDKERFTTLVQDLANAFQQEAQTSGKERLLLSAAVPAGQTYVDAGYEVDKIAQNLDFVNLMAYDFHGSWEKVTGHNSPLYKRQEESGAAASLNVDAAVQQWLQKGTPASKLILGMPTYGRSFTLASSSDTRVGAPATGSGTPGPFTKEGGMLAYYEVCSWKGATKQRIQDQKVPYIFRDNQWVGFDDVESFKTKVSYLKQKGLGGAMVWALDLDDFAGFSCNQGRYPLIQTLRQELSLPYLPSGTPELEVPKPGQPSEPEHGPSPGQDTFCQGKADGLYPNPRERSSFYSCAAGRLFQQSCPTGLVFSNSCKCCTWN

Chitotriosidase-1 [7] = target: T2, Chitotriosidase-1; assay: Binding affinity to human CHIT1 catalytic domain overexpressed in Pichia pastoris assessed by isothermal titration calorimetry
Target sequence in this assay (Q13231 whole entry, the tested form may be a part): as above

Chitinase B [8] = target: T5, Chitinase B (Serratia marcescens, UniProt P11797); assay: Inhibition of Serratia marcescens chitinase b catalytic domain overexpressed in Escherichia coli BL21(DE3) cells using 4MU-(GlcNAc)2 as substrate after 30 mins by fluorescence based microplate reader analysis
T5 sequence (P11797 whole entry): T1 sequence (whole entry)

Chitinase [9] = target: T4, Chitinase; assay: Inhibition of Ostrinia furnacalis chitinase h catalytic domain overexpressed in Pichia pastoris using 4MU-(GlcNAc)2 as substrate after 30 mins by fluorescence based microplate reader analysis
Chitinase B [10] = target: T5, Chitinase B; assay: Binding affinity to Serratia marcescens chitinase b catalytic domain overexpressed in Escherichia coli BL21(DE3) cells by isothermal titration calorimetry
[11] = target: Acidic mammalian chitinase (Mus musculus, UniProt Q91XA9); assay: Inhibition of mouse acidic mammalian chitinase catalytic domain overexpressed in Pichia pastoris using 4MU-(GlcNAc)2 as substrate after 30 mins by fluorescence based microplate reader analysis
Sequence of Acidic mammalian chitinase (Mus musculus, UniProt Q91XA9) (Q91XA9 whole entry, the tested form may be a part): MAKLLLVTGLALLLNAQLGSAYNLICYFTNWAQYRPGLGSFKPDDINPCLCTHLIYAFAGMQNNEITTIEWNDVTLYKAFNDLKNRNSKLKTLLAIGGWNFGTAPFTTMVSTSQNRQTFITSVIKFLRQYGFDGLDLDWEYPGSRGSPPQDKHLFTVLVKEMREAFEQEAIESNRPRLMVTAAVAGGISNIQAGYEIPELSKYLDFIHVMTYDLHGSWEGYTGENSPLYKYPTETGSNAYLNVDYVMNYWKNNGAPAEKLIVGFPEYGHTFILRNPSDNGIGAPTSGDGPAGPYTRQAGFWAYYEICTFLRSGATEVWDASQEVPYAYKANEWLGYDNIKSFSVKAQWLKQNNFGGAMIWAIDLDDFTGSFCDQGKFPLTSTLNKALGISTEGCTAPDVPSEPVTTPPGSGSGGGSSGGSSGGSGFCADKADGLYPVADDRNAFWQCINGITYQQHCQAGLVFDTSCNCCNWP

[12] = target: T1, Chitinase B (Serratia marcescens); assay: Binding affinity to Serratia marcescens chitinase b catalytic domain overexpressed in Escherichia coli BL21(DE3) cells assessed as association constant by isothermal titration calorimetry
Chitotriosidase-1 [13] = target: Chitotriosidase-1 (Mus musculus, UniProt Q9D7Q1); assay: Inhibition of mouse CHIT1 catalytic domain overexpressed in Pichia pastoris using 4MU-(GlcNAc)2 as substrate after 30 mins by fluorescence based microplate reader analysis
Sequence of Chitotriosidase-1 (Mus musculus, UniProt Q9D7Q1) (Q9D7Q1 whole entry, the tested form may be a part): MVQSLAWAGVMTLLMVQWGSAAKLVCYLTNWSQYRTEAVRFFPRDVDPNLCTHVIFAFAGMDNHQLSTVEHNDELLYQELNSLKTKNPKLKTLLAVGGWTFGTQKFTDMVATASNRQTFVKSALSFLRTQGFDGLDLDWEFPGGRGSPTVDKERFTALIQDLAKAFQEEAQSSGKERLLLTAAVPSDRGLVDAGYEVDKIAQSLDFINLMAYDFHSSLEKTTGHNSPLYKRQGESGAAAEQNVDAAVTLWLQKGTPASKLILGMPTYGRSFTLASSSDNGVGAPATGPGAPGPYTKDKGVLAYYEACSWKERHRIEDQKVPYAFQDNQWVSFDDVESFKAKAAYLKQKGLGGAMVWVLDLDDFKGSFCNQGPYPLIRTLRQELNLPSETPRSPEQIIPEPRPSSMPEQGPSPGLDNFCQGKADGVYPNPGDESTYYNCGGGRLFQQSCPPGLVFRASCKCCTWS

[14] = target: T3, Acidic mammalian chitinase; assay: Inhibition of human acidic mammalian chitinase catalytic domain overexpressed in Pichia pastoris using 4MU-(GlcNAc)2 as substrate after 30 mins by fluorescence based microplate reader analysis
Target sequence in this assay (Q9BZP6 whole entry, the tested form may be a part): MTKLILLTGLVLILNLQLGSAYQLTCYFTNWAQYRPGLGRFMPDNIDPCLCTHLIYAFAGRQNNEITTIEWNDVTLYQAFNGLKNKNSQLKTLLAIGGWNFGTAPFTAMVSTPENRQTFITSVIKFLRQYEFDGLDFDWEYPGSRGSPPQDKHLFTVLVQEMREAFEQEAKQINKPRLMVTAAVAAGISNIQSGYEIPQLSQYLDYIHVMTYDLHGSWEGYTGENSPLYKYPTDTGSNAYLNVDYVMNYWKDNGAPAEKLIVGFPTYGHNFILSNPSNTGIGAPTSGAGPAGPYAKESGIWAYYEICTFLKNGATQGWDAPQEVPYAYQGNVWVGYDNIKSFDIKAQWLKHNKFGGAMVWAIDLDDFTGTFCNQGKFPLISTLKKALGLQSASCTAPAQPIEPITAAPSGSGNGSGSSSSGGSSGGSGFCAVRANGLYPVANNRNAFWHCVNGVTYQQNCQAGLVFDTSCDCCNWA

Chitotriosidase-1 [15] = target: T2, Chitotriosidase-1; assay: Binding affinity to human CHIT1 catalytic domain overexpressed in Pichia pastoris assessed as association constant by isothermal titration calorimetry
Target sequence in this assay (Q13231 22-466 limits assumed): as the sequence (Q13231 22-466 limits assumed) above

Chitotriosidase-1 [16] = target: T2, Chitotriosidase-1; assay: Inhibition of human CHIT1 catalytic domain overexpressed in Pichia pastoris at 50 uM using 4MU-(GlcNAc)2 as substrate after 30 mins by fluorescence based microplate reader analysis relative to control
Target sequence in this assay (Q13231 22-466 limits assumed): as above

[17] = target: 3',5'-cyclic-AMP phosphodiesterase 4D (Homo sapiens) (UniProt Q08499); assay: Inhibition of PDE4D2 (unknown origin) at 10 uM relative to control
Sequence of 3',5'-cyclic-AMP phosphodiesterase 4D (Homo sapiens) (Q08499 whole entry): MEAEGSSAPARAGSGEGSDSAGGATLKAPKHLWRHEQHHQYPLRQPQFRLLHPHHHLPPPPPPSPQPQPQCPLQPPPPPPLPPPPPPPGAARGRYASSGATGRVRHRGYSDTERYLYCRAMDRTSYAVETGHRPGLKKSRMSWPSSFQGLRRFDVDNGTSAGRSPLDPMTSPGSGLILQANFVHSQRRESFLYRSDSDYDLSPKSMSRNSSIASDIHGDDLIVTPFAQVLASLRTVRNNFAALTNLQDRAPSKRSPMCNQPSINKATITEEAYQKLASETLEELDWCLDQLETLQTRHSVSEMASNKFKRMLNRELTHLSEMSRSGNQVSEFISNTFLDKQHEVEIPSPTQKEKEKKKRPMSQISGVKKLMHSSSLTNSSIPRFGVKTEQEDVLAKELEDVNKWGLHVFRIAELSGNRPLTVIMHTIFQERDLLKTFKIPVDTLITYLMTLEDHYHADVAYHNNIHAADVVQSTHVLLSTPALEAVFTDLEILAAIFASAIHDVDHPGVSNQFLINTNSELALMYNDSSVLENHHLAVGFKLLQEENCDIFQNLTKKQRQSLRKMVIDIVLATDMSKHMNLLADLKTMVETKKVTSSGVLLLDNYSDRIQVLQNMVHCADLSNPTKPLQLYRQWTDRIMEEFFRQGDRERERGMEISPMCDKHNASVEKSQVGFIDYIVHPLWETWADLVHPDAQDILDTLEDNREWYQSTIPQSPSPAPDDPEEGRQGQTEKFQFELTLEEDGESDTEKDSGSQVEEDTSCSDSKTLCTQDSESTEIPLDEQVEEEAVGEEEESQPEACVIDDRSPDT

Mus musculus [18] = assay: Antifibrotic activity in bleomycin-induced C57BL/6 mouse model of pulmonary fibrosis assessed as effect on Areg expression at 2 ug/mouse, ip administered for 11 days and measured on day 12 post treatment by RT-qPCR analysis; format: functional, organism-based
[19] = target: Chitotriosidase-1 (Mus musculus) (UniProt Q9D7Q1); assay: Inhibition of chitinase in mouse BALF at 1 ug using 4-MU-(GlcNAc)2 substrate as substrate after 15 mins relative to control
Sequence of Chitotriosidase-1 (Mus musculus) (Q9D7Q1 22-464 limits assumed): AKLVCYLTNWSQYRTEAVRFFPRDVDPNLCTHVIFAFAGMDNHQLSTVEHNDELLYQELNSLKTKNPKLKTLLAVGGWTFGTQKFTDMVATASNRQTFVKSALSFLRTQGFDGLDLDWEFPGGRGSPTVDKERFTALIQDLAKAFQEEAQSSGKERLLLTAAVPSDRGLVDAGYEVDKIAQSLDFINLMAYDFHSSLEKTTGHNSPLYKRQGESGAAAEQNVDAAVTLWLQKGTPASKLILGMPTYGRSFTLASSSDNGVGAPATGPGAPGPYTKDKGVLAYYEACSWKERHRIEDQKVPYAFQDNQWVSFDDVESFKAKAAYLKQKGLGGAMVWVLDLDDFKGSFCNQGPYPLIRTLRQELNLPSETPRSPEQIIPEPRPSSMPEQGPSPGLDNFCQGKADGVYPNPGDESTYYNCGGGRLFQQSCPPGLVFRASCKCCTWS

Mus musculus [20] = assay: In vivo inhibition of human chitinase in C57BL/6 mouse assesed as reduction in bleomycin-induced chitinase level in BALF at 2 ug/mouse, ip administered for 11 days and measured on day 12 by necropsy analysis; format: functional
Mus musculus [21] = assay: Antifibrotic activity in bleomycin-induced C57BL/6 mouse model of pulmonary fibrosis assessed as effect on IL33 expression at 2 ug/mouse, ip administered for 11 days and measured on day 12 post treatment by RT-qPCR analysis; format: functional, organism-based
Mus musculus [22] = assay: Antifibrotic activity in bleomycin-induced C57BL/6 mouse model of pulmonary fibrosis assessed as increase in number of PDL2+ alveolar macrophages in lungs at 2 ug/mouse, ip administered for 11 days and measured on day 12 post treatment by flow cytometric analysis; format: functional, organism-based
[23] = target: Chitotriosidase-1 (Mus musculus) (UniProt Q9D7Q1); assay: Inhibition of chitinase in mouse BALF at 40 ug using 4-MU-(GlcNAc)2 substrate as substrate after 15 mins relative to control
Mus musculus [24] = assay: Antifibrotic activity in bleomycin-induced C57BL/6 mouse model of pulmonary fibrosis assessed as effect on IL13 expression at 2 ug/mouse, ip administered for 11 days and measured on day 12 post treatment by RT-qPCR analysis; format: functional, organism-based
Mus musculus [25] = assay: Antifibrotic activity in bleomycin-induced C57BL/6 mouse model of pulmonary fibrosis assessed as effect on IL5 expression at 2 ug/mouse, ip administered for 11 days and measured on day 12 post treatment by RT-qPCR analysis; format: functional, organism-based
Mus musculus [26] = assay: Antifibrotic activity in bleomycin-induced C57BL/6 mouse model of pulmonary fibrosis assessed as increase in number of interstitial macrophages in lungs at 2 ug/mouse, ip administered for 11 days and measured on day 12 post treatment by flow cytometric analysis; format: functional, organism-based
Mus musculus [27] = assay: Antifibrotic activity in bleomycin-induced C57BL/6 mouse model of pulmonary fibrosis assessed as effect on TGFbeta expression at 2 ug/mouse, ip administered for 11 days and measured on day 12 post treatment by RT-qPCR analysis; format: functional, organism-based
Mus musculus [28] = assay: Antifibrotic activity in bleomycin-induced C57BL/6 mouse model of pulmonary fibrosis assessed as increase in number of monocytes in lungs at 2 ug/mouse, ip administered for 11 days and measured on day 12 post treatment by flow cytometric analysis; format: functional, organism-based
Mus musculus [29] = assay: Antifibrotic activity in bleomycin-induced C57BL/6 mouse model of pulmonary fibrosis assessed as effect on Chit1 expression at 2 ug/mouse, ip administered for 11 days and measured on day 12 post treatment by RT-qPCR analysis; format: functional, organism-based

COCCCn1c(=N)c(C(=O)NCc2ccc(C)cc2)cc2c(=O)n3ccccc3nc21
inhibition [1]: inactive
inhibition (Chitotriosidase-1 [2]): inactive
inhibition [3]: inactive
inhibition [4]: inactive

Cc1ccc2nc3c(cc(C(=O)N[C@H](C)c4ccccc4)c(=N)n3C[C@H]3CCCO3)c(=O)n2c1
inhibition [1]: Active
inhibition (Chitotriosidase-1 [2]): Active
inhibition [3]: Active
inhibition [4]: Active

COCCCn1c(=N)c(-c2nc3ccccc3s2)cc2c(=O)n3ccccc3nc21
inhibition [1]: inactive
inhibition (Chitotriosidase-1 [2]): inactive
inhibition [3]: inactive
inhibition [4]: inactive

C[C@@H](NC(=O)c1cc2c(=O)n3ccccc3nc2n(C[C@H]2CCCO2)c1=N)c1ccccc1
inhibition [1]: Active
inhibition (Chitotriosidase-1 [2]): Active
inhibition [3]: Active
inhibition [4]: Active

COC(=O)c1cc2c(=O)n3ccccc3nc2n(Cc2cccnc2)c1=N
inhibition [1]: inactive
inhibition (Chitotriosidase-1 [2]): inactive
inhibition [3]: inactive
inhibition [4]: inactive

Cc1cccn2c(=O)c3cc(C(=O)NCc4cccnc4)c(=N)n(Cc4ccc(F)cc4)c3nc12
inhibition [1]: Active
inhibition (Chitotriosidase-1 [2]): Active
inhibition [3]: Active
inhibition [4]: Active

COCCn1c(=N)c(C(=O)NCCN2CCCCC2)cc2c(=O)n3ccccc3nc21
inhibition [1]: inactive
inhibition (Chitotriosidase-1 [2]): inactive
inhibition [3]: inactive
inhibition [4]: inactive

Cc1cccn2c(=O)c3cc(C(=O)NCc4cccnc4)c(=N)n(CC4CCCO4)c3nc12 (configuration not stated)
pKd (Chitinase [5]): 7.07
inhibition [1]: Active
pKi (Chitotriosidase-1 [6]): 5.95
pKd (Chitotriosidase-1 [7]): 5.95
pKi (Chitinase B [8]): 7.24
inhibition (Chitotriosidase-1 [2]): Active
pKi (Chitinase [9]): 8.05
pKd (Chitinase B [10]): 6.72
pKi [11]: 5.86
Ka [12]: 5.1e+06 M⁻¹
pKi (Chitotriosidase-1 [13]): 5.71
inhibition [3]: Active
inhibition [4]: Active
pKi [14]: 5.01
Ka (Chitotriosidase-1 [15]): 895000 M⁻¹

N=c1c(C(=O)NCC2CCCO2)cc2c(=O)n3ccccc3nc2n1Cc1ccco1 (configuration not stated)
inhibition (Chitotriosidase-1 [16]): 100%

CC(NC(=O)c1cc2c(=O)n3ccccc3nc2n(Cc2ccccc2)c1=N)c1ccccc1 (configuration not stated)
inhibition [17]: 87.8%
Activity (Mus musculus [18]): inactive
inhibition [19]: 35%
inhibition [1]: Active
inhibition (INH) (Mus musculus [20]): 100%
inhibition (Chitotriosidase-1 [2]): Active
Activity (Mus musculus [21]): inactive
Activity (Mus musculus [22]): Active
inhibition [23]: 55%
Activity (Mus musculus [24]): Active
Activity (Mus musculus [25]): inactive
Activity (Mus musculus [26]): Active
Activity (Mus musculus [27]): inactive
inhibition [3]: Active
inhibition [4]: Active
Activity (Mus musculus [28]): Active
Activity (Mus musculus [29]): inactive

N=c1c(C(=O)NC2CCCCC2)cc2c(=O)n3ccccc3nc2n1Cc1cccnc1
inhibition [1]: inactive
inhibition (Chitotriosidase-1 [2]): inactive
inhibition [3]: inactive
inhibition [4]: inactive

COCCCn1c(=N)c(C(=O)NCc2ccc(OC)cc2)cc2c(=O)n3ccccc3nc21
inhibition [1]: inactive
inhibition (Chitotriosidase-1 [2]): inactive
inhibition [3]: inactive
inhibition [4]: inactive

Cc1cccn2c(=O)c3cc(C(=O)NCc4cccnc4)c(=N)n(Cc4ccco4)c3nc12
inhibition [1]: Active
inhibition (Chitotriosidase-1 [2]): Active
inhibition [3]: Active
inhibition [4]: Active

COCCCn1c(=N)c(C(=O)NCc2cccnc2)cc2c(=O)n3ccccc3nc21
inhibition [1]: inactive
inhibition (Chitotriosidase-1 [2]): inactive
inhibition [3]: inactive
inhibition [4]: inactive

C=CCn1c(=N)c(C(=O)N2CCN(C)CC2)cc2c(=O)n3cccc(C)c3nc21
inhibition [1]: inactive
inhibition (Chitotriosidase-1 [2]): inactive
inhibition [3]: inactive
inhibition [4]: inactive

CCOC(=O)c1cc2c(=O)n3ccccc3nc2n(Cc2ccco2)c1=N
inhibition [1]: inactive
inhibition (Chitotriosidase-1 [2]): inactive
inhibition [3]: inactive
inhibition [4]: inactive

COCCCn1c(=N)c(C(=O)NCc2ccc(F)cc2)cc2c(=O)n3ccccc3nc21
inhibition [1]: inactive
inhibition (Chitotriosidase-1 [2]): inactive
inhibition [3]: inactive
inhibition [4]: inactive

N=c1c(C(=O)NCc2cccnc2)cc2c(=O)n3ccccc3nc2n1Cc1ccccc1
inhibition [1]: Active
inhibition (Chitotriosidase-1 [2]): Active
inhibition [3]: Active
inhibition [4]: Active

Cc1cccn2c(=O)c3cc(C(=O)N[C@H](C)c4ccccc4)c(=N)n(C[C@H]4CCCO4)c3nc12
inhibition [1]: Active
inhibition (Chitotriosidase-1 [2]): Active
inhibition [3]: Active
inhibition [4]: Active

Cc1ccc2nc3c(cc(C(=O)NCc4cccnc4)c(=N)n3C[C@H]3CCCO3)c(=O)n2c1
inhibition [1]: Active
inhibition (Chitotriosidase-1 [2]): Active
inhibition [3]: Active
inhibition [4]: Active

Cc1cccn2c(=O)c3cc(C#N)c(=N)n(Cc4ccccc4)c3nc12
inhibition [1]: inactive
inhibition (Chitotriosidase-1 [2]): inactive
inhibition [3]: inactive
inhibition [4]: inactive

Cc1cccn2c(=O)c3cc(C#N)c(=N)n(Cc4cccnc4)c3nc12
inhibition [1]: inactive
inhibition (Chitotriosidase-1 [2]): inactive
inhibition [3]: inactive
inhibition [4]: inactive

COCCCn1c(=N)c(C(=O)N[C@@H](C)c2ccccc2)cc2c(=O)n3ccccc3nc21
inhibition [1]: Active
inhibition (Chitotriosidase-1 [2]): Active
inhibition [3]: Active
inhibition [4]: Active

CNC(=O)c1cc2c(=O)n3cc(C)ccc3nc2n(Cc2cccnc2)c1=N
inhibition [1]: inactive
inhibition (Chitotriosidase-1 [2]): inactive
inhibition [3]: inactive
inhibition [4]: inactive

Source: ChEMBL document CHEMBL4354842, “A Series of Compounds Bearing a Dipyrido-Pyrimidine Scaffold Acting as Novel Human and Insect Pest Chitinase Inhibitors” (J Med Chem, 2020)
